From patent publication US20170197977A9, “COMPOSITIONS AND METHODS FOR TREATING NEURODEGENERATIVE DISEASE” (COGNITION THERAPEUTICS, INC., priority 2011, published 2017)
Like-named read-outs stand apart in the source and are kept apart here.

How the values were obtained:
[1] = test system: Abeta oligomer-induced synapse loss; test: Synapse loss assay (synaptophysin puncta) in primary neurons; assay type: cell-based, rat; details: for Block synapse loss: Table 10B; for Abeta oligomer-induced synapse loss: in words
Method: In this assay, Abeta oligomers were brought in contact with mature primary neurons in culture and their binding was determined by immunohistochemistry (anti-Abeta antibody) and quantified by image processing. The amount of Abeta in neuronal dendrites is assessed by counting the number of labeled puncta on the neuritis. […] This labeling is associated with synapses, co-localizing with the post-synaptic scaffold protein PSD-95 (Lacor et al., '04). […] The number of synapses can also be quantified in this assay by immunofluorochemistry. Similar procedures for binding assays can be found in the literature. […] Review.
Primary hippocampal neuronal culture was established as in the membrane trafficking assay above. […] Pretreatment with compounds to be tested lasted for 1 hr and addition of Abeta oligomers or no oligomer (vehicle alone) in a final concentration of 70 ul was followed by incubation for an additional 23 hrs.
The plates were then washed 3× with PBS for 5 min each. The plates were blocked at RT for 1 hr in 5% goat serum and 0.5% Triton X-100 in PBS. […] Primary antibodies were incubated overnight at 4° C. The plates were then washed 3× with PBS for 5 min each. […] Secondary antibodies were incubated at RT for 1 hr. The plates were washed once with PBS. DAPI (4′,6-diamidino-2-phenylindole, Invitrogen) was then applied at 0.03 ug/ul and incubated at RT for 5 min, then washed with PBS.
Images were captured and analyzed with the Cellomics VTI automated microscope platform, using the Neuronal Profiling algorithm. For statistical analysis, a Tukey-Kramer pair-wise comparison with unequal variance was used.

[2] = test system: Abeta oligomer-induced membrane trafficking deficits; test: Membrane trafficking/exocytosis (MTT) assay in mature primary hippocampal neurons; assay type: cell-based, rat; details: for Functional Neuronal Phenotype: Table 10B
Method: The present exocytosis assay was adapted for use with mature primary neuronal cultures grown for 3 weeks in vitro.
The methods used to generate the results were as follows in the Membrane Trafficking/Exocytosis (MTT) assay.
Primary hippocampal neurons from E18 Sprague-Dawley rat embryos were plated at optimized concentrations in 384 well plates in NB media (Invitrogen). Neurons were maintained in cultures for 3 weeks, with twice weekly feeding of NB media with N2 supplement (Invitrogen).
[…] MTT reagent (3-(4,5-dimethylthizaol-2yl)-2,5diphenyl tetrazolium bromide) (Roche Molecular Biochemicals) was reconstituted in phosphate buffered saline to 5 mg/mL. 10 μL of MTT labeling reagent is added to each well and incubated at 37° C. for 1 h, then imaged. Exocytosis was assessed by automated microscopy and image processing to quantify the amount of endocytosed and exocytosed formazan.
Each assay plate was formatted so that compounds are tested with and without Abeta oligomer on each plate.

neuronal cultures [3] = test system: neuronal cultures
[4] = test system: caspase-3 activity in SKOV-3 human ovarian cancer cells; test: Caspase-3 activity assay in tumor cells; assay type: cell-based
[5] = test system: SKOV-3 human ovarian cancer cell line; test: MTS tumor cell viability assay; assay type: cell-based; details: for Action: agonist/antagonist call relative to siramesine; for IC50: Tumor cell viability, 48 hrs
Method: The cytotoxicity of compounds shown below was determined using the CellTiter96 Aqueous One Solution Assay (Promega, Madison, Wis.). […] The plate was read at 490 nm in a Victor3 plate reader (PerkinElmer Life and Analytical Sciences, Shelton, Conn.). The EC^50 value, defined as the concentration of the sigma ligand required to inhibit cell viability by 50% relative to untreated cells, was determined from the dose response curve for each cell line.

[6] = test system: caspase-3 activity in neurons; test: Caspase-3 activity assay in neurons; assay type: cell-based
Method: The activation of endogenous caspase-3 by sigma-2 receptor ligands was measured using the Caspase-3 Colorimetric Activity Assay Kit (Milipore, Billerica, Mass.) according to the manufacture's protocol. Briefly, MDA-MB 435 or MDA-MB23I cells were plated at 0.5×10^6 cells 100 mm dish. 24 hours after plating, sigma-2 ligands were added to the culture dishes to induce caspase 3 activation. The final concentration of the sigma-2 ligand was its EC50. 24 hours after treatment, cells were harvested, lysed in 300 uL of Cell Lysis Buffer, and centrifuged for 5 minutes at 10,000×g. Supernatant was collected and incubated with caspase-3 substrate, DEVD-pNA, for 2 hours at 37° C. […] Compounds IXa,IXb and II behaved like sigma-2 […] in both cancer cells and neurons.

neuronal cultures [7] = test: Nuclear intensity / morphology in neuronal cultures; details: 24 hours
sigma-2 receptor = test: Autoradiography, displacement of [3H]-RHM-1 in brain sections; assay type: binding; details: 1 μM; monkey frontal cortex, monkey hippocampus, human temporal cortex
Method: Brain sections in 20 μM thickness from rats, rhesus monkeys and postmortem human brains were cut using with a Microm cryotome and mounted on superfrost plus glass slides (Fisher Scientific, Pittsburgh, Pa.)., and serial sections through the brain regions of cerebral cortex and hippocampus were used in this study.
Slides were dried and made conductive by coating with a copper foil tape on the free side and then placed in the gas chamber [mixture of argon and triethylamine (Sigma-Aldrich, USA)] of a gaseous detector, the Beta Imager 2000Z Digital Beta Imaging System (Biospace, France). […] [^3H]Microscale (American Radiolabeled Chemicals, Inc., St. Louis, Mo.) was counted at the same time as a reference for total radioactivity quantitative analysis, i.e., to convert the cpm/mm2 to nCi/mg tissue. Quantitative analysis was performed with the program Beta-Image Plus (BioSpace, France) for the anatomical regions of interest (ROI), i.e., to obtain the quantitative radioactivity uptake (cpm/nlln2) in the regions of cortex and hippocampus. The binding density was normalized to fmol/mg tissue based on the specific activities of the corresponding radioligands and calibration curve from the standard [^3H]Microscale.

## COc1cc(CCC(C)NCc2ccc(C(F)(F)F)cc2)ccc1O (single isomer, unassigned; (+)) [(+) enantiomer of Cpd II]
[1]; listed as II (+) isomer
  Block synapse loss: 47%
[2]
  Functional Neuronal Phenotype: Antagonist
[2]; dose response of % vesicles against Abeta oligomer concentration, 0 uM of enantiomer (Abeta oligomer alone), read-out: EC50 against Abeta at Concentration 0 uM
  EC50: 1190 nM
[2]; read-out: EC50 against Abeta at Concentration 20 uM, dose response of % vesicles against Abeta oligomer concentration, 20 uM of enantiomer
  EC50: 1460 nM

## COc1cc(CCC(C)NCc2ccc(C(F)(F)F)cc2)ccc1O (single isomer, unassigned; (-)) [(−) enantiomer of Cpd II]
[1]; listed as II (−) isomer
  Block synapse loss: 0%
[2]; Rattus norvegicus, Hippocampal neuron, Table 4, read-out: EC50 in screening assay using single concentration of Abeta oligomer
  EC50: 10900 nM
[2]; Rattus norvegicus, Hippocampal neuron, dose response of % vesicles against Abeta oligomer concentration, 0 uM of enantiomer (Abeta oligomer alone), read-out: EC50 against Abeta at Concentration 0 uM
  EC50: 1050 nM
[2]; Rattus norvegicus, Hippocampal neuron, read-out: EC50 against Abeta at Concentration 20 uM, dose response of % vesicles against Abeta oligomer concentration, 20 uM of enantiomer
  EC50: 2820 nM
[2]
  Functional Neuronal Phenotype: Antagonist

## CCCN(CCC)CCc1ccc(OC)c(OCCc2ccccc2)c1 [NE-100, reference compound]
[1]
  Abeta oligomer-induced synapse loss: completely eliminated synapse loss

## COc1cc2c(cc1OC)CN(CCCCNC(=O)c1cc(C)ccc1OC)CC2 [RHM-1, N-[4-(3,4-dihydro-6,7-dimethoxyisoquinolin-2(1H)-yl)butyl]-2-methoxy-5-methylbenzamide]
Neuronal cultures [3]
  Nuclear morphology / nuclear intensity compared to vehicle: did not decrease nuclear intensity
[4]
  Block of caspase-3 activation caused by sigma-2 receptor agonist SV-119: do not block caspase-3 activation
  Induction of caspase-3 activity: did not induce caspase-3 activity
[5]
  Action: Antagonist
[6]
  Induction of caspase-3 activity: did not induce caspase-3 activity

## COc1ccc(C)cc1NC(=O)OC1CC2CCCC(C1)N2CCCCCCN (stereo not drawn) [SV-119]
[4]
  Induction of caspase-3 activity: activate caspase-3
[5]
  IC50: 21700 ± 2900 nM
  Action: Full agonist
Neuronal cultures [7]
  Nuclear morphology / nuclear intensity compared to vehicle: caused significant abnormal nuclear morphology
[6]
  Induction of caspase-3 activity: activate caspase-3

## Fc1ccc(-n2cc(CCCCN3CCC4(CC3)OCc3ccccc34)c3ccccc32)cc1 [Siramesine]
[4]
  Induction of caspase-3 activity: induced caspase-3 activity
[5]
  Action: Full agonist
Neuronal cultures [7]
  Nuclear morphology / nuclear intensity compared to vehicle: caused significant abnormal nuclear morphology
[6]
  Induction of caspase-3 activity: induced
sigma-2 receptor
  Displacement of 18.4 nM [3H]-RHM-1: partially displace

## COc1ccc(C)cc1NC(=O)OC1CC2CCCC(C1)N2Cc1ccc(N(C)C)cc1 (stereo not drawn) [WC-26]
[5]
  IC50: 65600 ± 6300 nM
  Action: Partial agonist
Neuronal cultures [7]
  Nuclear morphology / nuclear intensity compared to vehicle: caused significant abnormal nuclear morphology

## O=C(CCCN1CCC(O)(c2ccc(Cl)cc2)CC1)c1ccc(F)cc1 [haloperidol, reference compound]
[1]
  Abeta oligomer-induced synapse loss: completely eliminated synapse loss

## synthetic Abeta oligomer: Abeta 1-42 oligomers made according to published methods [reference compound]
[2]; synthetic Abeta oligomer alone, read-out: EC50 of Abeta oligomer in membrane trafficking assay
  EC50: 820 nM
